In article PMC12239085, “Silver(I) Ions Bridging Oxadiazole-2-thione Derivatives with Mitochondriotropic Agents: A Promising Strategy for Potent Anticancer Chemotherapy” (Inorganic Chemistry, 2025):

Biological target: T1, lipoxygenase (LOX) (Glycine max, UniProt P08170)
T1 sequence (P08170 1-839): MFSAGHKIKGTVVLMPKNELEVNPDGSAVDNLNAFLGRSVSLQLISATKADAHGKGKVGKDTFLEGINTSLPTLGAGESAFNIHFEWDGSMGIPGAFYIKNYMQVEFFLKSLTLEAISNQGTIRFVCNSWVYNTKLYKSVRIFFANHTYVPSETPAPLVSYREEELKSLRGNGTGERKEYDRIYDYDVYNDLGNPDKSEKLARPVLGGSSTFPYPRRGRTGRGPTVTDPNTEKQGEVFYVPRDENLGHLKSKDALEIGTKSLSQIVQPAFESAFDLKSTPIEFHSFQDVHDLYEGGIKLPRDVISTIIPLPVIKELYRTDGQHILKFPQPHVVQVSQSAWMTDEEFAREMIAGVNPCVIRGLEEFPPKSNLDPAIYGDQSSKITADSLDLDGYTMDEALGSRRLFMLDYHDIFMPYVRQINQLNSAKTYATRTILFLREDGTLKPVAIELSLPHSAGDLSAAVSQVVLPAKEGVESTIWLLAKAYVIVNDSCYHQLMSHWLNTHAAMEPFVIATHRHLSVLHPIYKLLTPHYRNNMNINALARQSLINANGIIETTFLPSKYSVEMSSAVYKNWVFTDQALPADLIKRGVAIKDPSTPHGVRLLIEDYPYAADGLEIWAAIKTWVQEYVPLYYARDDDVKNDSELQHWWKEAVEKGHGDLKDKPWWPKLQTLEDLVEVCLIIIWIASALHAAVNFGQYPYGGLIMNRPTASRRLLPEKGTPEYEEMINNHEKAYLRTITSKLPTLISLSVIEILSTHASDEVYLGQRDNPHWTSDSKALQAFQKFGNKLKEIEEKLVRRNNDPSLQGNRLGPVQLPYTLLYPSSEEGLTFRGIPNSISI
Test: Inhibition of linoleic acid peroxidation by LOX
Format: biochemical
Settings: for IC50: linoleic acid 0.3 mM, borate buffer pH 9, read-out: IC50 against LOX; for pIC50 LOX: p(IC50)= -Log(IC50), Table S4, this study
Method: This study performed as previously reported. , In brief, a 0.2 M borate buffer solution at pH 9 was prepared by dissolving boric acid in double-distilled water (ddw). The pH was then adjusted to 9.0 using a 50% w/w sodium hydroxide solution.
The linoleic acid substrate solution was prepared as follows: 0.05 mL of linoleic acid was dissolved in 0.05 cm^3 of 95% ethanol within a volumetric flask. Subsequently, double-distilled water was gradually added until reaching a final volume of 5 cm^3. This solution was then diluted with 30 cm^3 of borate buffer.
The LOX enzyme solution was prepared in an ice-cold bath by diluting a stock solution of 10,000 U/mL. For each reaction, 500 U of enzyme was used per 3 cm^3 of reaction mixture. One unit of LOX activity corresponds to an increase in absorbance at 234 nm of 0.001 per minute.
Enzyme activity was monitored by UV spectrophotometry. Specifically, 0.05 cm^3 of enzyme solution was added to a cuvette containing 2 cm^3 of linoleic acid solution, along with the appropriate volumes of buffer and inhibitor solutions 1–5 (concentration range of 1.5 to 12.5 μΜ). The enzymatic activity was determined by measuring the increase in absorbance at 234 nm, which corresponds to the oxidation of linoleic acid (ε = 25,000 M^–1 cm^–1). During the assays, the substrate concentration was maintained constant at 0.3 mM, while the buffer and inhibitor volumes were adjusted to achieve final inhibitor concentrations ranging from 2 to 30 μM.
The degree of LOX activity (A%) in the presence or absence of the 1–5 was calculated according to the following equation: , A%=(Vo(inthepresenceofinhibitor/Vo(withoutinhibitor))×100(%) where V o is the initial rate.
The value of the initial rate (V o, μΜ min^–1) was calculated according to the following formula: Vo=ΔC/Δt=ΔA/ε×Δt=tgα/ε where C is the concentration of the product (hydroperoxy-linoleic acid), t is the reaction time, ε is the molar extinction coefficient of hydroperoxy-linoleic acid, and tgα represents the slope of the kinetic curve obtained by plotting absorbance against time.

Structure (SMILES) | IC50 | pIC50 LOX
c1ccc(-c2nnc([S][Ag]([PH](c3ccccc3)(c3ccccc3)c3ccccc3)([PH](c3ccccc3)(c3ccccc3)c3ccccc3)[PH](c3ccccc3)(c3ccccc3)c3ccccc3)o2)cc1 [compound 1] | 2.5 µM | 5.6
Fc1ccccc1-c1nnc([S][Ag]([PH](c2ccccc2)(c2ccccc2)c2ccccc2)([PH](c2ccccc2)(c2ccccc2)c2ccccc2)[PH](c2ccccc2)(c2ccccc2)c2ccccc2)o1 [compound 2] | 7.3 µM | 5.1
Fc1ccc(-c2nnc([S][Ag]([PH](c3ccccc3)(c3ccccc3)c3ccccc3)([PH](c3ccccc3)(c3ccccc3)c3ccccc3)[PH](c3ccccc3)(c3ccccc3)c3ccccc3)o2)cc1 [compound 3] | 6.8 µM | 5.2
Clc1ccccc1-c1nnc([S][Ag]([PH](c2ccccc2)(c2ccccc2)c2ccccc2)([PH](c2ccccc2)(c2ccccc2)c2ccccc2)[PH](c2ccccc2)(c2ccccc2)c2ccccc2)o1 [compound 4] | 7.5 µM | 5.1
Clc1cccc(-c2nnc([S][Ag]([PH](c3ccccc3)(c3ccccc3)c3ccccc3)([PH](c3ccccc3)(c3ccccc3)c3ccccc3)[PH](c3ccccc3)(c3ccccc3)c3ccccc3)o2)c1 [compound 5] | 1.8 µM | 5.7
